What all share (format): cell-based
For assay [1], the system named is HCT-116 (colon cancer cells characterized by wild-type p53). Description: Anti-proliferation activity against HCT-116 cells. Particulars: Homo sapiens. How it is done:
(§1) Upon completion of synthesis of library of compounds in Examples 23 and 24, the compounds were evaluated for anti-proliferative activity against SkBr3 (Her2 overexpressing breast cancer cells), MCF-7 (estrogen receptor positive breast cancer cells), HCT-116 (colon cancer cells characterized by wild-type p53), PL45 (pancreatic cancer cells), LNCaP (androgen sensitive prostate cancer cells) and PC-3 (androgen independent prostate cancer cells) cell lines. […] The monosubstituted benzamide variants improved activity.

For assay [2], the system named is MCF-7 (estrogen receptor positive breast cancer cells). The assay is described as follows: Anti-proliferation activity against MCF-7 cells (MTS/PMS). To be noted: Homo sapiens, MCF7, n = 3, read-out: IC50 MCF-7. Put shortly: (§2)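 Cells seeded at 2000/well, attached overnight, then exposed to compound at varying concentrations (1% DMSO final) for 72 hours at 37° C. Viable cells read by MTS/PMS, normalised to 1% DMSO as 100% proliferation. IC50 from separate triplicate experiments.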

Assay [3] deals with LNCaP (androgen sensitive prostate cancer cells). Description: Anti-proliferation activity against LNCaP cells. To be noted: Homo sapiens, LNCaP, n = 3, read-out: IC50 LNCaP. Put shortly:
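Cells seeded at 2000/well in Advanced DMEM/F12 with 10% FBS and attached overnight, then given compound in 1% DMSO final for 72 h at 37 °C, 5% CO2. Viable cells by MTS/PMS read-out, normalised to 1% DMSO as 100% proliferation. IC50 from separate triplicate experiments.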

The test system of assay [4] is PC-3 (androgen independent prostate cancer cells). Description: Anti-proliferation activity against PC-3 cells. Particulars: Homo sapiens, PC-3, n = 3, read-out: IC50 PC-3. Put shortly: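 Antiproliferative activity was tested in PC-3 androgen-independent prostate cancer cells. Cells grown at 37° C. with 5% CO2 in Advanced DMEM/F12 (1:1) containing non-essential amino acids, 2 mM L-glutamine, streptomycin, penicillin and 10% FBS were plated at 2000/well in 96-well plates. Proliferation was normalized to 1% DMSO controls, and IC50 values from triplicate experiments were fitted in GraphPad Prism.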

Assay [5] concerns SkBr3 (Her2 overexpressing breast cancer cells). Description: Anti-proliferation activity against SkBr3 cells (MTS/PMS). Particulars: Homo sapiens, SK-BR-3, n = 3, read-out: IC50 SkBr3. Put shortly: as §2
The test system of assay [6] is PL45 (pancreatic cancer cells). The assay is described as follows: Anti-proliferation activity against PL45 cells. How it is done:
as §1

The mark [7] stands for this setting: Table 4, biaryl analogues, n = 3.
The mark [8] stands for this setting: Table 5, heterocyclic analogues, n = 3.
[9] abbreviates: Table 5, heterocyclic analogues.

Experimental findings from patent US9120774B2 (University of Kansas, priority 2009, dated 2015) are described below.

The structures appear in SMILES notation. Like-named read-outs stand apart in the source and are kept apart here. Where only a bound is given, the exact number is not on record here.

By IC50 is commonly meant the concentration needed to halve the response being measured. Take `CO[C@@H]1[C@@H](O)[C@@H](O)[C@H](Oc2ccc3cc(NC(=O)CCc4ccccc4)c(=O)oc3c2C)OC1(C)C` [compound 23, N-(7-((2R,3R,4S,5R)-3,4-Dihydroxy-5-methoxy-6,6-dimethyltetrahydro-2H-pyran-2-yloxy)-8-methyl-2-oxo-2H-chromen-3-yl)-3-phenylpropanamide]: the half-inhibitory concentration (IC50) in assay [1] (Table 3, n = 3) was 5.4 ± 0.6 µM; in assay [2] (Table 3), 6.9 ± 0.3 µM; in assay [3] (Table 3), 92.8 ± 0.9 µM; in assay [4] (Table 3) it was 22 ± 5.8 µM; in assay [5] (Table 3) it was 10.2 ± 2.3 µM; in assay [6] (Table 3, n = 3) it was 9.8 ± 0.2 µM.

Take `COc1ccc(C(=O)Nc2cc3ccc(O[C@@H]4OC(C)(C)[C@H](OC)[C@@H](O)[C@H]4O)c(C)c3oc2=O)cc1-c1ccccc1` [compound 28, N-(7-((2R,3R,4S,5R)-3,4-Dihydroxy-5-methoxy-6,6-dimethyltetrahydro-2H-pyran-2-yloxy)-8-methyl-2-oxo-2H-chromen-3-yl)-6-methoxybiphenyl-3-carboxamide]: the half-maximal inhibitory concentration (IC50) was determined as 11.4 µM in assay [1] (setting [7]); 19.5 ± 2.3 µM in assay [2] (Table 4, biaryl analogues); 1.9 ± 0.2 µM in assay [3] (Table 4, biaryl analogues); 25.4 ± 5.2 µM in assay [4] (Table 4, biaryl analogues); 16.5 ± 4.7 µM in assay [5] (Table 4, biaryl analogues); 2.8 ± 0.4 µM in assay [6] (setting [7]).

For `COc1ccc(C(=O)Nc2cc3ccc(O[C@@H]4OC(C)(C)[C@H](OC)[C@@H](O)[C@H]4O)c(C)c3oc2=O)cc1-c1ccccc1C` [compound 29, N-(7-((2R,3R,4S,5R)-3,4-Dihydroxy-5-methoxy-6,6-dimethyltetrahydro-2H-pyran-2-yloxy)-8-methyl-2-oxo-2H-chromen-3-yl)-6-methoxy-2′-methylbiphenyl-3-carboxamide], the IC50 in assay [1] (setting [7]) was 37.5 ± 3.4 µM; in assay [2] (Table 4, biaryl analogues) it was 18.9 ± 2.7 µM; in assay [3] (Table 4, biaryl analogues), 22.6 ± 3.3 µM; in assay [4] (Table 4, biaryl analogues), 64.7 ± 17.1 µM; in assay [5] (Table 4, biaryl analogues), 32.4 ± 5.1 µM; in assay [6] (setting [7]), 6.8 ± 1.5 µM.

As to `COc1ccc(C(=O)Nc2cc3ccc(O[C@@H]4OC(C)(C)[C@H](OC)[C@@H](O)[C@H]4O)c(C)c3oc2=O)cc1-c1cccc(C)c1` [compound 30, N-(7-((2R,3R,4S,5R)-3,4-Dihydroxy-5-methoxy-6,6-dimethyltetrahydro-2H-pyran-2-yloxy)-8-methyl-2-oxo-2H-chromen-3-yl)-6-methoxy-3′-methylbiphenyl-3-carboxamide], the half-inhibitory concentration (IC50) turned out to be 26.4 ± 0.6 µM in assay [1] (setting [7]); 20.4 ± 0.8 µM in assay [2] (Table 4, biaryl analogues); 4.2 ± 1.2 µM in assay [3] (Table 4, biaryl analogues); 50.7 ± 4.3 µM in assay [4] (Table 4, biaryl analogues); 20.4 ± 3.5 µM in assay [5] (Table 4, biaryl analogues); 4.2 ± 1 µM in assay [6] (setting [7]).

Consider `COc1ccc(C(=O)Nc2cc3ccc(O[C@@H]4OC(C)(C)[C@H](OC)[C@@H](O)[C@H]4O)c(C)c3oc2=O)cc1-c1ccc(C)cc1` [compound 31, N-(7-((2R,3R,4S,5R)-3,4-Dihydroxy-5-methoxy-6,6-dimethyltetrahydro-2H-pyran-2-yloxy)-8-methyl-2-oxo-2H-chromen-3-yl)-6-methoxy-4′-methylbiphenyl-3-carboxamide], for which the IC50 in assay [1] (setting [7]) worked out at 2.4 ± 1 µM; in assay [2] (Table 4, biaryl analogues) it was 16.7 ± 6.3 µM; in assay [3] (Table 4, biaryl analogues), 3.7 ± 0.9 µM; in assay [4] (Table 4, biaryl analogues), 31.9 ± 10.3 µM; in assay [5] (Table 4, biaryl analogues), 25.4 ± 1.7 µM; in assay [6] (setting [7]) it was 1.4 ± 0.1 µM.

For `COc1cccc(-c2cc(C(=O)Nc3cc4ccc(O[C@@H]5OC(C)(C)[C@H](OC)[C@@H](O)[C@H]5O)c(C)c4oc3=O)ccc2OC)c1` [compound 33, N-(7-((2R,3R,4S,5R)-3,4-Dihydroxy-5-methoxy-6,6-dimethyltetrahydro-2H-pyran-2-yloxy)-8-methyl-2-oxo-2H-chromen-3-yl)-3′,6-dimethoxybiphenyl-3-carboxamide], the half-inhibitory concentration (IC50) in assay [1] (setting [7]) is 5.1 ± 1.1 µM; in assay [2] (Table 4, biaryl analogues), 18.7 ± 1.8 µM; in assay [3] (Table 4, biaryl analogues), 2.1 ± 0.3 µM; in assay [4] (Table 4, biaryl analogues), 53.3 ± 4.5 µM; in assay [5] (Table 4, biaryl analogues), 7.5 ± 1 µM; in assay [6] (setting [7]), 2 ± 0.6 µM.

With `COc1ccc(-c2cc(C(=O)Nc3cc4ccc(O[C@@H]5OC(C)(C)[C@H](OC)[C@@H](O)[C@H]5O)c(C)c4oc3=O)ccc2OC)cc1` [compound 34, N-(7-((2R,3R,4S,5R)-3,4-Dihydroxy-5-methoxy-6,6-dimethyltetrahydro-2H-pyran-2-yloxy)-8-methyl-2-oxo-2H-chromen-3-yl)-4′,6-dimethoxybiphenyl-3-carboxamide], the IC50 was 24 ± 0.3 µM in assay [1] (setting [7]); 37.9 ± 2.3 µM in assay [2] (Table 4, biaryl analogues); 3.3 ± 0.6 µM in assay [3] (Table 4, biaryl analogues); 44 ± 20.3 µM in assay [4] (Table 4, biaryl analogues); 7.8 ± 0.5 µM in assay [5] (Table 4, biaryl analogues); 2.6 ± 0.5 µM in assay [6] (setting [7]).

With `COc1ccc(C(=O)Nc2cc3ccc(O[C@@H]4OC(C)(C)[C@H](OC)[C@@H](O)[C@H]4O)c(C)c3oc2=O)cc1-c1cccc(O)c1` [compound 36, N-(7-((2R,3R,4S,5R)-3,4-Dihydroxy-5-methoxy-6,6-dimethyltetrahydro-2H-pyran-2-yloxy)-8-methyl-2-oxo-2H-chromen-3-yl)-3′-hydroxy-6-methoxybiphenyl-3-carboxamide], the half-inhibitory concentration (IC50) in assay [1] (setting [7]) was found to be 4.5 ± 1.2 µM; in assay [2] (Table 4, biaryl analogues) it was 5.3 ± 1.5 µM; in assay [3] (Table 4, biaryl analogues), 2.5 ± 1.2 µM; in assay [4] (Table 4, biaryl analogues), 14.7 ± 2.4 µM; in assay [5] (Table 4, biaryl analogues) it was 2.9 ± 1.2 µM; in assay [6] (setting [7]) it was 1.1 µM.

Consider `COc1ccc(C(=O)Nc2cc3ccc(O[C@@H]4OC(C)(C)[C@H](OC)[C@@H](O)[C@H]4O)c(C)c3oc2=O)cc1-c1ccc(O)cc1` [compound 37, N-(7-((2R,3R,4S,5R)-3,4-Dihydroxy-5-methoxy-6,6-dimethyltetrahydro-2H-pyran-2-yloxy)-8-methyl-2-oxo-2H-chromen-3-yl)-4′-hydroxy-6-methoxybiphenyl-3-carboxamide], for which the half-inhibitory concentration (IC50) was 1.4 ± 0.1 µM in assay [1] (setting [7]); 2.3 ± 0.8 µM in assay [2] (Table 4, biaryl analogues); 2.6 ± 0.5 µM in assay [3] (Table 4, biaryl analogues); 22.3 ± 3.6 µM in assay [4] (Table 4, biaryl analogues); 1.6 ± 0.2 µM in assay [5] (Table 4, biaryl analogues); 1.9 ± 0.8 µM in assay [6] (setting [7]).

On to `COc1ccc(C(=O)Nc2cc3ccc(O[C@@H]4OC(C)(C)[C@H](OC)[C@@H](O)[C@H]4O)c(C)c3oc2=O)cc1-c1cccc2c1Sc1ccccc1S2` [compound 38, N-(7-((2R,3R,4S,5R)-3,4-Dihydroxy-5-methoxy-6,6-dimethyltetrahydro-2H-pyran-2-yloxy)-8-methyl-2-oxo-2H-chromen-3-yl)-4-methoxy-3-(thianthren-1-yl)benzamide], for which the IC50 in assay [1] (setting [7]) was greater than 100 µM; in assay [2] (Table 4, biaryl analogues) it was greater than 100 µM; in assay [3] (Table 4, biaryl analogues), 8.8 ± 0.6 µM; in assay [4] (Table 4, biaryl analogues), 1 ± 0.1 µM; in assay [5] (Table 4, biaryl analogues), greater than 100 µM; in assay [6] (setting [7]) it was greater than 100 µM.

Consider `CO[C@@H]1[C@@H](O)[C@@H](O)[C@H](Oc2ccc3cc(NC(=O)c4ccccn4)c(=O)oc3c2C)OC1(C)C` [compound 40, N-(7-((2R,3R,4S,5R)-3,4-Dihydroxy-5-methoxy-6,6-dimethyltetrahydro-2H-pyran-2-yloxy)-8-methyl-2-oxo-2H-chromen-3-yl)picolinamide], for which the half-maximal inhibitory concentration (IC50) in assay [1] (setting [8]) turned out to be 23.3 ± 5.9 µM; in assay [2] (setting [9]), 20.3 ± 4.1 µM; in assay [3] (setting [9]), 44.9 ± 31.1 µM; in assay [4] (setting [9]), 15.1 ± 2.1 µM; in assay [5] (setting [9]) it was 28.4 ± 2 µM; in assay [6] (setting [8]), 7.9 ± 0.7 µM.

Regarding `CO[C@@H]1[C@@H](O)[C@@H](O)[C@H](Oc2ccc3cc(NC(=O)c4cccnc4)c(=O)oc3c2C)OC1(C)C` [compound 41, N-(7-((2R,3R,4S,5R)-3,4-Dihydroxy-5-methoxy-6,6-dimethyltetrahydro-2H-pyran-2-yloxy)-8-methyl-2-oxo-2H-chromen-3-yl)nicotinamide], the IC50 in assay [1] (setting [8]) was determined as 37.3 ± 1 µM; in assay [2] (setting [9]) it was 47.8 ± 4.2 µM; in assay [3] (setting [9]), 50.1 ± 3.3 µM; in assay [4] (setting [9]), 67 ± 20.2 µM; in assay [5] (setting [9]) it was 65.9 ± 15.8 µM; in assay [6] (setting [8]), 13.2 ± 1 µM.

Turning to `CO[C@@H]1[C@@H](O)[C@@H](O)[C@H](Oc2ccc3cc(NC(=O)c4ccc5c(c4)OCO5)c(=O)oc3c2C)OC1(C)C` [compound 45, N-(7-((2R,3R,4S,5R)-3,4-Dihydroxy-5-methoxy-6,6-dimethyltetrahydro-2H-pyran-2-yloxy)-8-methyl-2-oxo-2H-chromen-3-yl)benzo[d][1,3]dioxole-5-carboxamide], the half-maximal inhibitory concentration (IC50) in assay [1] (setting [8]) was greater than 100 µM; in assay [2] (setting [9]) it was greater than 100 µM; in assay [3] (setting [9]), 9.3 ± 0.6 µM; in assay [4] (setting [9]), 10.9 ± 2.3 µM; in assay [5] (setting [9]) it was greater than 100 µM; in assay [6] (setting [8]) it was 5.2 ± 1.1 µM.
